The record followed here is ChEMBL document CHEMBL1201862, “PubChem BioAssay data set” (2004).

Test systems include DMS-273; HOP-18; LXFL 529; M19-MEL; RXF 631; SNB-78; XF498; MDA-N; NCI/ADR-RES.
Holding throughout (assay): NCI anticancer screen, dose series, 48 h

SMILES strings stand for the structures.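 Method: 48-hour compound exposure of cells in 96-well plates, five concentrations, linear interpolation of endpoints. Abbreviation: GI50, concentration required for 50% inhibition of growth.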 The source made the active and inactive calls. Cut-off read from the data, not from the text of the source: active = GI50 up to about 1.1 µM and inactive = higher.

With `CC(=O)NNc1nc(C)c(C(=O)NNC(=O)C(=O)Nc2c(C)cccc2C)s1`, the GI50 with DMS-273 was 31.8 µM (inactive); with HOP-18 it was 29.2 µM (inactive); in the assay with LXFL 529 it was 41.8 µM (inactive); in the assay with M19-MEL it was 32.7 µM (inactive); in the assay with RXF 631, 26.2 µM (inactive); in the assay with SNB-78 it was 36.1 µM (inactive).
For the molecule `O=C1CC(O)C=C1Nc1ccc(Cl)cc1` (configuration not stated), the GI50 in the assay with DMS-273 was 13.1 µM (inactive); in the assay on HOP-18, 29.4 µM (inactive); in the assay on LXFL 529 it was 6.76 µM (inactive); in the assay on M19-MEL it was 25.2 µM (inactive); in the assay with RXF 631, 31.4 µM (inactive); in the assay on SNB-78 it was 39.6 µM (inactive).
With `c1ccc2c(c1)N=C(c1cccc3ccccc13)CC(c1cccc3ccccc13)S2` (configuration not stated), the GI50 was 4.46 µM (inactive) with DMS-273; 5.57 µM (inactive) in the assay on HOP-18; 3.27 µM (inactive) in the assay on LXFL 529; 5.53 µM (inactive) in the assay with M19-MEL; 5.53 µM (inactive) in the assay on SNB-78; 9.79 µM (inactive) with XF498.
For the molecule `COC(=O)CC(=O)OC`, the GI50 in the assay on DMS-273, with HOP-18, in the assay on LXFL 529, in the assay with M19-MEL, with SNB-78 and in the assay on XF498 was > 100 µM (inactive) each time.
On to `O=C1NC2C3CC(OCc4ccccc4)(OCc4ccccc4)C2OC3O1` (configuration not stated), for which the GI50 in the assay on DMS-273 was > 50 µM (inactive); in the assay on HOP-18, > 50 µM (inactive); in the assay on LXFL 529, < 0.005 µM (active); in the assay on M19-MEL, > 50 µM (inactive); in the assay with SNB-78, < 0.005 µM (active); with XF498, > 50 µM (inactive).
`CN(C(=O)C12C3C4C5C3C1(C(=O)C13C6C7C8C6C1C8C73)C5C42)C(C)(C)C` (configuration not stated): the GI50 in the assay on DMS-273 is > 21.4 µM (inactive); in the assay on HOP-18, > 50 µM (inactive); in the assay with LXFL 529, > 50 µM (inactive); in the assay on M19-MEL it was > 50 µM (inactive); in the assay with SNB-78, > 50 µM (inactive); in the assay on XF498, > 50 µM (inactive).
Regarding `O=C1[C@@H]2C(c3cccc([N+](=O)[O-])c3)=NO[C@@H]2C(=O)N1c1ccc(Cc2ccc(N3C(=O)[C@H]4C(c5cccc([N+](=O)[O-])c5)=NO[C@H]4C3=O)cc2)cc1`, the GI50 in the assay on DMS-273, with HOP-18, in the assay with LXFL 529, in the assay on M19-MEL, in the assay with RXF 631 and in the assay with SNB-78 was > 100 µM (inactive) throughout.
`Clc1ccc(SCCCCCCCCCCSc2ccc(Cl)cc2)cc1`: the GI50 with DMS-273, with HOP-18, in the assay with LXFL 529, with M19-MEL, with SNB-78 and with XF498 was > 100 µM (inactive) throughout.
For the molecule `Cc1ccc(S(=O)(=O)N/N=C2\CCCCC23CCC(=O)NC3)cc1` (configuration not stated), the GI50 in the assay on DMS-273, with HOP-18, in the assay on LXFL 529, in the assay on M19-MEL, in the assay on RXF 631 and with SNB-78 was > 100 µM (inactive) in each case.
For `C[C@H]1C(=O)CC[C@]2(C)CCC(C(C)(C)O)CC12O` (some centres not stated), the GI50 with DMS-273, with HOP-18, with LXFL 529, in the assay on RXF 631 and with SNB-78 was > 100 µM (inactive) throughout.
Turning to `CC1=C2C(=O)[C@H]3[C@@H](CC=C4C[C@@H](O)CC[C@@]43C)[C@@H]2CC[C@]12O[C@@H]1C[C@H](C)CN[C@H]1[C@H]2C` [JERVINE], the GI50 in the assay with DMS-273 is 22 µM (inactive); in the assay on HOP-18 it was 17.1 µM (inactive); in the assay with LXFL 529, 18.4 µM (inactive); with M19-MEL it was 29.4 µM (inactive); in the assay on MDA-N, > 100 µM (inactive); with NCI/ADR-RES it was > 100 µM (inactive). Moreover, the GI50 was 23.2 µM (inactive) with RXF 631 and 19.2 µM (inactive) in the assay with SNB-78.
